Results from US20160122307A1, “PERHYDROQUINOXALINE DERIVATIVES” (DR. AUGUST WOLFF GMBH & CO. KG ARZNEIMITTEL, priority 2013, published 2016).
Read-outs that look alike come from different tables or passages of the source.

Biological target: Human opiate κ receptors (Homo sapiens, UniProt P41145)
Test: κ opioid receptor functional assay, [35S]GTPγS binding (assay C)
Type: biochemical
Details: for activation at 1 µM: 0.5 h, read-out: % activation functional assay at 1 μM
[1] = read-out: EC50 (nM) [35S]GTPγS binding

Chain of Human opiate κ receptors (P41145 whole entry): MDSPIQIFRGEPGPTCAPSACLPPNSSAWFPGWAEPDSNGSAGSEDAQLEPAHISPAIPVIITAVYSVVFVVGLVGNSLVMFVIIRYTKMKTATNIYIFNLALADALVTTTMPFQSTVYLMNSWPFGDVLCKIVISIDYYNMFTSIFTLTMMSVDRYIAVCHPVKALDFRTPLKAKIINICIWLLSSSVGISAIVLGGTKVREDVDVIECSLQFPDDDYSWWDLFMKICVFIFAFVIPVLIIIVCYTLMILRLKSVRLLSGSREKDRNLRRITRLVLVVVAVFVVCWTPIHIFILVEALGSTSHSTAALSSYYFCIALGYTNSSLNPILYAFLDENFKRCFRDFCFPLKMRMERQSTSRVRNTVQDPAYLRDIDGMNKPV

## COC(=O)COC(=O)N1CCN(C(=O)Cc2ccc(Cl)c(Cl)c2)C2C(N3CCCC3)CCCC21 (racemic) [Example 67]
  activation at 1 µM: 106%
GTPγS EC50 (nM)
  EC50: < 10 nM

## NC(=O)COC(=O)N1CCN(C(=O)Cc2ccc(Cl)c(Cl)c2)C2C(N3CCCC3)CCCC21 (racemic) [Example 68]
  activation at 1 µM: 104%
GTPγS EC50 (nM)
  EC50: 10 to 100 nM

## O=C(O)COC(=O)N1CCN(C(=O)Cc2ccc(Cl)c(Cl)c2)C2C(N3CCCC3)CCCC21 (racemic) [Example 69]
  activation at 1 µM: 101%
GTPγS EC50 (nM)
  EC50: 10 to 100 nM

## COC(=O)N1CCN(C(=O)Cc2ccc(Cl)c(Cl)c2)C2C(N3CC(O)C3)CCCC21 (racemic) [Example 71]
  % activation functional assay at 1 μM: 113%
read-out: GTPγS EC50
  EC50: 10 to 100 nM

## Cl.Cl.Cl.O=C(Cc1ccc(Cl)c(Cl)c1)N1CCN(c2cccnc2)C2CCCC(N3CCCC3)C21 (racemic) [Example 72]
  % activation functional assay at 1 μM: 106%
read-out: GTPγS EC50
  EC50: < 10 nM

## COC(=O)CNC(=O)N1CCN(C(=O)Cc2ccc(Cl)c(Cl)c2)C2C(N3CCCC3)CCCC21 (racemic) [Example 75]
  activation at 1 µM: 113%
GTPγS EC50 (nM)
  EC50: < 10 nM

## NC(=O)CNC(=O)N1CCN(C(=O)Cc2ccc(Cl)c(Cl)c2)C2C(N3CCCC3)CCCC21 (racemic) [Example 76]
  activation at 1 µM: 106%
GTPγS EC50 (nM)
  EC50: 10 to 100 nM

## O=C(O)CNC(=O)N1CCN(C(=O)Cc2ccc(Cl)c(Cl)c2)C2C(N3CCCC3)CCCC21 (racemic) [Example 77]
  activation at 1 µM: 98%
GTPγS EC50 (nM)
  EC50: 10 to 100 nM

## O=C(C1CCNC1)N1CCN(C(=O)Cc2ccc(Cl)c(Cl)c2)C2C(N3CCCC3)CCCC21 (racemic) [Example 78]
  activation at 1 µM: 64%
GTPγS EC50 (nM)
  EC50: 100 to 1000 nM

## O=C(C=Cc1ccoc1)N1CCN(C(=O)Cc2ccc(Cl)c(Cl)c2)C2C(N3CCCC3)CCCC21 (racemic) [Example 79]
  activation at 1 µM: 102%

## O=C(C1CCCN1)N1CCN(C(=O)Cc2ccc(Cl)c(Cl)c2)C2C(N3CCCC3)CCCC21 (racemic) [Example 80]
  activation at 1 µM: 76%
GTPγS EC50 (nM)
  EC50: 100 to 1000 nM

## O=C(c1ncccn1)N1CCN(C(=O)Cc2ccc(Cl)c(Cl)c2)C2C(N3CCCC3)CCCC21 (racemic) [Example 82]
  activation at 1 µM: 97%

## O=C(c1ncccn1)N1CCN(C(=O)Cc2ccc(Cl)c(Cl)c2)C2C(N3CCCC3)CCCC21 (racemic) [Example 83]
  % activation functional assay at 1 μM: 111%

## COC(=O)c1ccc(C(=O)N2CCN(C(=O)Cc3ccc(Cl)c(Cl)c3)C3C(N4CCCC4)CCCC32)nc1 (racemic) [Example 85]
  activation at 1 µM: 101%

## COC(=O)c1cccc(C(=O)N2CCN(C(=O)Cc3ccc(Cl)c(Cl)c3)C3C(N4CCCC4)CCCC32)c1 (racemic) [Example 86]
  activation at 1 µM: 86%

## NC(=O)c1ccc(C(=O)N2CCN(C(=O)Cc3ccc(Cl)c(Cl)c3)C3C(N4CCCC4)CCCC32)cc1 (racemic) [Example 87]
  activation at 1 µM: 109%

## COC(=O)N1CCN(C(=O)Cc2ccc(Cl)c(Cl)c2)C2C(N3CCC(O)CC3)CCCC21 (racemic) [Example 88]
  % activation functional assay at 1 μM: 107%
read-out: GTPγS EC50
  EC50: < 10 nM

## O=C(Cc1ccc(Cl)c(Cl)c1)N1CCN(Cc2ccccc2)[C@@H]2CCC[C@H](N3CCCC3)[C@H]21 (racemic) [H, reference compound]
  activation (% of control) at 1 μM: 97 % of control
EC50 (nM) [35S]GTPγS binding
  EC50: 29 nM

## CCOC(=O)N1CCN(C(=O)Cc2ccc(Cl)c(Cl)c2)C2C(N3CCCC3)CCCC21 (racemic) [O, reference compound]
  activation (% of control) at 1 μM: 88 % of control
[1]
  EC50: 150 nM

## COC(=O)CCC(=O)N1CCN(C(=O)Cc2ccc(Cl)c(Cl)c2)[C@H]2[C@H]1CCC[C@@H]2N1CCCC1 (racemic) [Q, reference compound]
  EC50: 530 nM
  activation (% of control) at 1 μM: 61 % of control

## COC(=O)N1CCN(C(=O)Cc2ccc(Cl)c(Cl)c2)[C@H]2[C@H](N3CCCC3)CCC[C@@H]21 (racemic) [Reference compound B, reference compound]
  activation (% of control) at 1 μM: 90 % of control
  activation at 1 µM: 90%

## COC(=O)N1CCN(C(=O)Cc2ccc(Cl)c(Cl)c2)[C@@H]2[C@H]1CCC[C@@H]2N1CCCC1 (racemic) [Reference compound E, reference compound]
  activation at 1 µM: 68%

## O=C(Cc1ccc(Cl)c(Cl)c1)N1CCN(Cc2cccnc2)[C@@H]2CCC[C@H](N3CCCC3)[C@H]21 (racemic) [Y, reference compound]
  activation (% of control) at 1 μM: 96 % of control
EC50 (nM) [35S]GTPγS binding
  EC50: 34 nM

## COC(=O)N1CCN(C(=O)Cc2ccc(Cl)c(Cl)c2)[C@H]2[C@H](N3CCCC3)CCC[C@H]21 (single isomer, unassigned) [Reference compound A, reference compound]
  activation at 1 µM: 51%

## COC(=O)N1CCN(C(=O)Cc2ccc(Cl)c(Cl)c2)[C@H]2[C@H](N3CCCC3)CCC[C@@H]21 (single isomer, unassigned) [Reference compound C, reference compound]
  activation at 1 µM: 85%

## COC(=O)N1CCN(C(=O)Cc2ccc(Cl)c(Cl)c2)[C@H]2[C@H]1CCC[C@@H]2N1CCCC1 (single isomer, unassigned) [Reference compound D, reference compound]
  activation at 1 µM: 92%

## O=C(Cc1ccc(Cl)c(Cl)c1)N1CCN(Cc2cnc[nH]2)C2CCCC(N3CCCC3)C21 (centres unmarked) [AA, reference compound]
  activation (% of control) at 1 μM: 89 % of control
[1]
  EC50: 56 nM

## COC(=O)N1CCN(C(=O)Cc2ccc(Cl)c(Cl)c2)C2C(N3CCC(O)C3)CCCC21 (centres unmarked) [Example 11]
1 µM
  activation (% of control) at 1 μM: 92 % of control
  activation at 1 µM: 92%
EC50 (nM) [35S]GTPγS binding
  EC50: 11.7 nM
GTPγS EC50 (nM)
  EC50: 10 to 100 nM

## COC(=O)N1CCN(C(=O)Cc2ccc(Cl)c(Cl)c2)C2C(N3CCC(O)C3)CCCC21 (centres unmarked) [Example 53]
  % activation functional assay at 1 μM: 97%
1 µM
  activation (% of control) at 1 μM: 97 % of control
EC50 (nM) [35S]GTPγS binding
  EC50: 6.1 nM
GTPγS EC50 (nM)
  EC50: < 10 nM

## COC(=O)N1CCN(C(=O)Cc2ccc(Cl)c(Cl)c2)[C@@H]2[C@@H](N(C)C)CCC[C@@H]21 [Example 90]
  activation at 1 µM: 96%
GTPγS EC50 (nM)
  EC50: < 10 nM

## CCN(C)[C@H]1CCC[C@H]2[C@@H]1N(C(=O)Cc1ccc(Cl)c(Cl)c1)CCN2C(=O)OC [Example 91]
  activation at 1 µM: 106%
GTPγS EC50 (nM)
  EC50: < 10 nM

## COC(=O)N1CCN(C(=O)Cc2ccc(F)c(Cl)c2)[C@@H]2[C@@H](N3CCCC3)CCC[C@@H]21 [Example 92]
  activation at 1 µM: 105%
GTPγS EC50 (nM)
  EC50: 10 to 100 nM

## COC(=O)N1CCN(C(=O)Cc2ccc(C(F)(F)F)c(Cl)c2)[C@@H]2[C@@H](N3CCCC3)CCC[C@@H]21 [Example 93]
  activation at 1 µM: 101%
GTPγS EC50 (nM)
  EC50: < 10 nM

## COC(=O)N1CCN(C(=O)Cc2ccc(Cl)c(F)c2)[C@@H]2[C@@H](N3CCCC3)CCC[C@@H]21 [Example 94]
  activation at 1 µM: 103%
GTPγS EC50 (nM)
  EC50: 10 to 100 nM

## Cl.O=C(OCc1ccccc1)N1CCN(C(=O)Cc2ccc(Cl)c(Cl)c2)C2C(N3CCCC3)CCCC21 (centres unmarked) [Example 95]
  % activation functional assay at 1 μM: 104%
read-out: GTPγS EC50
  EC50: < 10 nM

## COC(=O)N1CCN(C(=O)Cc2ccc(Cl)c(Cl)c2)[C@@H]2[C@@H](N3CC[C@@H](O)C3)CCC[C@@H]21 [Example 96]
  activation at 1 µM: 109%
GTPγS EC50 (nM)
  EC50: < 10 nM

## COC(=O)N1CCN(C(=O)Cc2ccc(Cl)c(Cl)c2)[C@@H]2[C@@H](N3CC[C@H](O)C3)CCC[C@@H]21 [Example 97]
  activation at 1 µM: 113%
GTPγS EC50 (nM)
  EC50: < 10 nM

## CN(C)S(=O)(=O)N1CCN(C(=O)Cc2ccc(Cl)c(Cl)c2)[C@@H]2[C@@H](N3CCCC3)CCC[C@@H]21 [Example 98]
  activation at 1 µM: 105%
GTPγS EC50 (nM)
  EC50: < 10 nM

## CC(C)NC(=O)N1CCN(C(=O)Cc2ccc(Cl)c(Cl)c2)[C@@H]2[C@@H](N3CCCC3)CCC[C@@H]21 [Example 99]
  activation at 1 µM: 100%
GTPγS EC50 (nM)
  EC50: < 10 nM

## O=C(Cc1ccc(Cl)c(Cl)c1)N1CCN(C(=O)NCc2ccccc2)[C@H]2CCC[C@H](N3CCCC3)[C@H]21 [Example 100]
  activation at 1 µM: 105%
GTPγS EC50 (nM)
  EC50: < 10 nM

## COC(=O)COC(=O)N1CCN(C(=O)Cc2ccc(Cl)c(Cl)c2)[C@@H]2[C@@H](N3CCCC3)CCC[C@@H]21 [Example 101]
  activation at 1 µM: 99%
GTPγS EC50 (nM)
  EC50: < 10 nM

## CS(=O)(=O)N1CCN(C(=O)Cc2ccc(Cl)c(Cl)c2)[C@@H]2[C@@H](N3CCCC3)CCC[C@@H]21 [Example 102]
  activation at 1 µM: 106%
GTPγS EC50 (nM)
  EC50: < 10 nM

## COC(=O)C(=O)N1CCN(C(=O)Cc2ccc(Cl)c(Cl)c2)C2C(N3CCCC3)CCCC21.Cl (centres unmarked) [Example 103]
  % activation functional assay at 1 μM: 98%
read-out: GTPγS EC50
  EC50: < 10 nM

## COC(=O)COC(=O)N1CCN(C(=O)Cc2ccc(Cl)c(Cl)c2)[C@@H]2[C@@H](N3CC[C@@H](O)C3)CCC[C@@H]21 [Example 105]
  activation at 1 µM: 116%
GTPγS EC50 (nM)
  EC50: < 10 nM

## COC(=O)COC(=O)N1CCN(C(=O)Cc2ccc(Cl)c(Cl)c2)[C@@H]2[C@@H](N3CC[C@H](O)C3)CCC[C@@H]21 [Example 106]
  activation at 1 µM: 92%
GTPγS EC50 (nM)
  EC50: < 10 nM

## CC(C)OC(=O)COC(=O)N1CCN(C(=O)Cc2ccc(Cl)c(Cl)c2)[C@@H]2[C@@H](N3CCCC3)CCC[C@@H]21 [Example 107]
  activation at 1 µM: 104%
GTPγS EC50 (nM)
  EC50: < 10 nM

## COC(=O)N1CCN(C(=O)Cc2ccc(C(F)(F)F)c(Cl)c2)[C@@H]2[C@@H](N3CC[C@H](O)C3)CCC[C@@H]21 [Example 108]
  activation at 1 µM: 100%
GTPγS EC50 (nM)
  EC50: < 10 nM

## COC(=O)N1CCN(C(=O)Cc2ccc(F)c(Cl)c2)[C@@H]2[C@@H](N3CC[C@H](O)C3)CCC[C@@H]21 [Example 109]
  activation at 1 µM: 110%
GTPγS EC50 (nM)
  EC50: < 10 nM

## COC(=O)N1CCN(C(=O)Cc2ccc(F)c(Cl)c2)C2C(N3CCC(O)C3)CCCC21.Cl (centres unmarked) [Example 110]
  % activation functional assay at 1 μM: 92%
read-out: GTPγS EC50
  EC50: 10 to 100 nM

## COC(=O)N1CCN(C(=O)Cc2ccc(C(F)(F)F)c(Cl)c2)[C@@H]2[C@@H](N3CC[C@@H](O)C3)CCC[C@@H]21 [Example 113]
  activation at 1 µM: 102%
GTPγS EC50 (nM)
  EC50: < 10 nM

## COC(=O)N1CCN(C(=O)Cc2ccc(Cl)c(F)c2)C2C(N3CCC(O)C3)CCCC21.Cl (centres unmarked) [Example 115]
  % activation functional assay at 1 μM: 103%
read-out: GTPγS EC50
  EC50: 10 to 100 nM

## CN(C)C(=O)C(=O)N1CCN(C(=O)Cc2ccc(Cl)c(Cl)c2)[C@@H]2[C@@H](N3CCCC3)CCC[C@@H]21.Cl [Example 116]
  % activation functional assay at 1 μM: 111%
read-out: GTPγS EC50
  EC50: 10 to 100 nM
